The structures appear in SMILES notation.

A short description of data set [1]: Dynamic Vapor Sorption (DVS) water uptake. The settings on record: for solid form by XRPD after DVS: after DVS experiment. The class given is physicochemical. The method, then:
Dynamic Vapor Sorption (DVS)—The term “DVS” means the procedure described in below. The relative humidity at 25° C. was calibrated against deliquescence point of LiCl, Mg(NO3)2 and KCl.
The DVS of SCY-078 salts were tested according to the above method, using a 10-20 mg sample size. The DVS was measured using a Surface Measurement Systems (SMS) DVS Intrinsic.

Data set [2] in a line: Physical and chemical stability of trifluoroacetate Types A and B and HCl Type I for 1, 2, 4 and 8 weeks. To be noted: for physical and chemical stability: 25° C./60% RH, 40° C./75% RH and 60° C. The class given is physicochemical. The method, then: High Power Liquid Chromatography (HPLC) Method—An Agilent 1260 HPLC with DAD detector was utilized to test solubility or to test purity and stability. […] System suitability was tested by injecting standard solutions five times in each sample sequence, and the relative standard deviation of the peak areas was less than 2%.
Physical and chemical stability evaluation of trifluoroacetate Type A, trifluoroacetate Type B, and HCl Type I was performed at 25° C./60% RH, 40° C./75% RH and 60° C. for 1, 2, 4 and 8 weeks. In the experiments, approximately 20 mg of solid was placed into a 1.5-mL glass vial. The vials were stored under 25° C./60% RH (uncapped), 40° C./75% RH (uncapped) and 60° C. (capped) conditions for 8 weeks. XRPD analysis was then employed to check the crystalline form of the solid, and HPLC was utilized to determine the purity profile at 1, 2, 4 and 8 weeks. […] The solid form change of trifluoroacetate Type A at 2 and 4 weeks was postulated to the air-exposure when the sample was taken out for XRPD characterization.

A short description of data set [3]: Kinetic solubility of trifluoroacetate Types A and B and HCl Type I (alternative procedure: SGF, FaSSIF and FeSSIF alternative media, acetate pH 5.5, phosphate pH 6.0 alternative media). To be noted: for Form change: residual solid by XRPD. The method, then:
An alternative media (“FaSSIF alternative media”) was used to study the trifluoroacetate salts (Type A and B) and the HCl Type I salt. More specifically, the media was prepared by weighing 0.17 g of sodium phosphate monobasic (NaH2PO4, anhydrous), 0.021 g of sodium hydroxide, and 0.31 g of sodium chloride into a 50-mL volumetric flask and was dissolve with approximately 48 mL of purified water. The pH was adjusted to exactly 6.5 using 1 M HCl or 1 M NaOH and diluted to volume with purified water. 0.11 g of SIF powder was then added, stirred and sonicated until all the powder was completely dissolved. The solution was equilibrated for 2 hours at RT before use. The solution can be stored at RT for 48 hours or 4° C. for 7 days and should be equilibrated to RT before use
An alternative media (“FeSSIF alternative media”) was used to study the trifluoroacetate salts (Type A and B) and the HCl Type I salt. More specifically, the media was prepared by transferring 0.41 mL of glacial acid and weighing 0.20 g of sodium hydroxide, 0.59 g of sodium chloride into a 50-mL volumetric flask. This was dissolved with approximately 48 mL of purified water. The pH was adjusted to exactly 5.0 using 1 M HCl or 1 M NaOH and diluted to volume with purified water. 0.56 g of SIF powder was added, stirred and sonicated until all the powder is completely dissolved. The solution can be stored at RT for 48 hours or 4° C. for 7 days and should be equilibrated to RT before use.
Acetate Buffer (pH 5.5) Preparation—The acetate buffer (pH 5.5) used for the trifluoroacetate salts (Type A and B) and the HCl Type I salt was prepared by placing 0.60 g sodium acetate (NaC2H3O2.3H2O) in a 100-mL volumetric flask, adding 3 mL of 2 M acetic acid solution, and then adding purified water to volume.
An alternative media (“phosphate (pH 6.0) alternative media”) was used to study the trifluoroacetate salts (Type A and B) and the HCl Type I salt. More specifically, the media was prepared by dissolving 2.72 g of 0.2 M monobasic potassium phosphate (KH2PO4) in purified water, and diluting with purified water t 100 mL. 0.8 g of 0.2 M sodium hydroxide in purified water was diluted with purified water to 100 mL. Then 50 mL of the 0.2 M monobasic potassium phosphate solution was placed in a 200-mL volumetric flask, 5.6 mL of 0.2 M sodium hydroxide solution was added, and then purified water was added to volume.
The trifluoroacetate salts (Type A and B) and the HCl Type I salt were tested using the following alternative procedure. First, 15 mg, 36 mg or 90 mg solid was weighted into a 4-mL plastic tube, and 3 mL of relevant media was added before leaving the suspension on a rolling incubator (25 r/min). For SCF, 90 mg of solid was used. For FaSSIF, acetate buffer (pH 5.5), and phosphate buffer (pH 6.0), 15 mg solid was used. For FeSSIF, 36 mg of solid was used. 1.0 mL aliquot of the suspension was sampled for centrifugation with the supernatant submitted for HPLC and pH measurement and solid for XRPD characterization at 1 hr, 4 hr and/or 24 hrs.
The solubility of trifluoroacetate Type A, Type B and HCl Type I was measured in SGF at ambient temperature. Approximately 90 mg of solid sample was weighted into a 4-mL centrifuge tube, and 3 mL of SGF buffer was added before leaving the suspension on a rolling incubator (25 r/min). 1.0 mL aliquot of the suspension was sampled for centrifugation (10000 rpm, 3 mins) the supernatant was analyzed by HPLC and pH measurement and solid by XRPD characterization at 1 hr, 4 hr and 24 hrs, respectively.
The solubility of trifluoroacetate Type A, Type B and hydrochloride Type I was measured in the FaSSIF alternative media at ambient temperature. Approximately 15 mg of solid sample was weighted into a 4-mL plastic tube, and 3 mL of the media was added before leaving the suspension on a rolling incubator (25 r/min).

A short description of data set [4]: Chemical and physical stability of SCY-078 salts on storage (25° C./60% RH, 40° C./75% RH, 60° C.). The class given is physicochemical. To be noted: Type M 4 days, Type S 1 week. The text has this:
For all compounds tested other than the trifluoroacetate salts (Type A and B) and the HCl Type I and II salts, the conditions and parameters used for measuring solubility are shown in Table 2A and for measuring stability are showing in Table 3A. The conditions and parameters used for the solubility of the trifluoroacetate salts (Type A and B) and the HCl Type I and II salts are shown in Table 2B and for stability are shown in Table 3B.

Where [5] appears, read: 25° C./60% RH (uncapped), 1 week.
The mark [6] stands for this setting: 25° C./60% RH (uncapped), 2 weeks.
Where [7] appears, read: 25° C./60% RH (uncapped), 4 weeks.
Setting [8] is: 25° C./60% RH (uncapped), 8 weeks.
Setting [9] is: 40° C./75% RH (uncapped), 1 week.
[10] abbreviates: 40° C./75% RH (uncapped), 2 weeks.
The mark [11] stands for this setting: 40° C./75% RH (uncapped), 4 weeks.
Where [12] appears, read: 40° C./75% RH (uncapped), 8 weeks.

As for `CC(C)[C@@H](C)[C@@]1(C)CC[C@]2(C)[C@H]3CC[C@@H]4[C@@]5(COC[C@]4(C)[C@@H](OC[C@](C)(N)C(C)(C)C)[C@H](n4ncnc4-c4ccncc4)C5)C3=CC[C@@]2(C)[C@@H]1C(=O)O.Cl` [SCY-078 HCl Type I], the “water uptake (DVS)” value in data set [1] (25° C./80% RH) was 6.1 wt %. Moreover, the “solid form by XRPD after DVS” value in data set [1] is reported as “No form change”. In addition, the HPLC purity in data set [2] (setting [5]), in data set [2] (setting [6]), in data set [2] (setting [7]), in data set [2] (setting [8]), in data set [2] (setting [9]) and in data set [2] (setting [10]) was 99.9% each time. Also, the HPLC purity in data set [2] (setting [11]) was found to be 99.9%; in data set [2] (setting [12]) it was 99.9%; in data set [2] (60° C. (capped), 1 week) it was 99.9%; in data set [2] (60° C. (capped), 2 weeks), 99.9%; in data set [2] (60° C. (capped), 4 weeks), 99.9%; in data set [2] (60° C. (capped), 8 weeks), 99.9%. In addition, the Solid form entry in data set [2] (setting [5]), in data set [2] (setting [6]), in data set [2] (setting [7]), in data set [2] (setting [8]), in data set [2] (setting [9]) and in data set [2] (setting [10]) was “Type I” each time. Further, the Solid form result in data set [2] (setting [11]) is “Type I”; in data set [2] (setting [12]) it was “Type I”; in data set [2] (60° C. (capped), 1 week), “Type I”; in data set [2] (60° C. (capped), 2 weeks) it was “Type I”; in data set [2] (60° C. (capped), 4 weeks) it was “Type I”; in data set [2] (60° C. (capped), 8 weeks), “Type I”. Further, the “physical and chemical stability” value in data set [2] (8 weeks) was “physically and chemically stable”. The “Initial HPLC purity” value in data set [2] (Initial) was 99.9%. The Form change entry in data set [3] (FaSSIF alternative media, 1 hr) is on record as “No”; in data set [3] (FaSSIF alternative media, 4 hrs), “No”; in data set [3] (FaSSIF alternative media, 24 hrs), “No”; in data set [3] (FeSSIF alternative media, 1 hr), “No”; in data set [3] (FeSSIF alternative media, 4 hrs), “No”; in data set [3] (FeSSIF alternative media, 24 hrs), “No”. For the same molecule, the Form change result in data set [3] (SGF, 1 hr) is “No”; in data set [3] (SGF, 4 hrs), “No”; in data set [3] (SGF, 24 hrs), “No”; in data set [3] (phosphate (pH 6.0) alternative media, 4 hrs), “No”; in data set [3] (phosphate (pH 6.0) alternative media, 24 hrs) it was “No”. Besides, in data set [3] (FaSSIF alternative media, ambient temperature), the “form change of residual solid in FaSSIF alternative media” value was “no form change was observed”. For the same molecule, in data set [3] (FeSSIF alternative media, ambient temperature), the “form change of residual solid in FeSSIF alternative media” value was “no form change was observed”. The “form change of residual solid in SGF” value in data set [3] (SGF, ambient temperature) was “no form change was observed”. Moreover, the “form change of residual solid in acetate buffer” value in data set [3] (acetate buffer pH 5.5, ambient temperature) is on record as “converted to Type II”. In addition, the “solubility in acetate buffer (comparison)” value in data set [3] (acetate buffer pH 5.5, ambient temperature, 4 hr and 24 hrs) is given as “lower solubility”. Moreover, in data set [3] (phosphate (pH 6.0) alternative media, ambient temperature), the “form change of residual solid in phosphate (pH 6.0) alternative media” value is listed as “No form change was observed”. The “solubility in phosphate (pH 6.0) alternative media (comparison)” value in data set [3] (phosphate (pH 6.0) alternative media, ambient temperature, 4 hr and 24 hrs) was “higher solubility”.
Turning to `CC(C)[C@@H](C)[C@@]1(C)CC[C@]2(C)[C@H]3CC[C@@H]4[C@@]5(COC[C@]4(C)[C@@H](OC[C@](C)(N)C(C)(C)C)[C@H](n4ncnc4-c4ccncc4)C5)C3=CC[C@@]2(C)[C@@H]1C(=O)O.O=C(O)C(F)(F)F` [SCY-078 Trifluoroacetate Type B], in data set [1] (25° C./80% RH), the “water uptake (DVS)” value was 3.4 wt %. Further, the “solid form by XRPD after DVS” value in data set [1] is “converted to Type A”. Further, the “physical and chemical stability” value in data set [2] (8 weeks, listed as Trifluoroacetate Type B) is given as “chemically stable, however, physically unstable”. In addition, the “form change of residual solid in FaSSIF alternative media” value in data set [3] (FaSSIF alternative media, ambient temperature, listed as Trifluoroacetate Type B) was “converted to Type A”. Further, in data set [3] (FeSSIF alternative media, ambient temperature, listed as trifluoroacetate Type B), the “form change of residual solid in FeSSIF alternative media” value is on record as “no form change was observed”. For the same molecule, the “form change of residual solid in SGF” value in data set [3] (SGF, ambient temperature, listed as Trifluoroacetate Type B) is “converted to Type A”. Moreover, the “form change of residual solid in acetate buffer” value in data set [3] (acetate buffer pH 5.5, ambient temperature, listed as trifluoroacetate Type B) was “converted to Type A”. The “form change of residual solid in phosphate (pH 6.0) alternative media” value in data set [3] (phosphate (pH 6.0) alternative media, ambient temperature, listed as trifluoroacetate Type B) was “converted to Type A at 24 hrs”.
With `CC(C)[C@@H](C)[C@@]1(C)CC[C@]2(C)[C@H]3CC[C@@H]4[C@@]5(COC[C@]4(C)[C@@H](OC[C@](C)(N)C(C)(C)C)[C@H](n4ncnc4-c4ccncc4)C5)C3=CC[C@@]2(C)[C@@H]1C(=O)O.O=C(O)CC(O)(CC(=O)O)C(=O)O` [SCY-078 citrate Type M], the “water uptake (DVS)” value in data set [1] (25° C., 80% RH) worked out at 11.0%. Further, the “solid form by XRPD after DVS” value in data set [1] is on record as “converts to partially amorphous”. Also, the “physical and chemical stability” value is “impurity of SCY-078 citrate Type M increased” in data set [4] (closed dish 60° C.); “physically and chemically stable” in data set [4] (open dish 25° C., 60% RH); “One diffraction peak change and partial crystallinity loss” in data set [4] (open dish 40° C., 75% RH).

The record behind these values is patent US20190153024A1, “NOVEL SALTS AND POLYMORPHS OF SCY-078” (priority 2015, published 2019).
